According to patent US7863328B2, “Phenylbenzoic acid derivatives, processes for the preparation thereof, pharmaceutical compositions comprising them, and therapeutic uses thereof” (Merck Patent GmbH, priority 2005, dated 2011):

Molecular target: T1, chimeric protein PPARγ-Gal4 (Homo sapiens, UniProt P37231)
T1 construct: expressed in transfected cells; host or cells: CV-1 cells (monkey kidney cells)
Assay: PPARγ-Gal4 transactivation test (luciferase reporter) in cotransfected CV-1 cells
Assay type: cell-based
Method: The measurement of the PPAR activation was performed according to a technique described by Lehmann et al. (J. Biol. Chem., 270, (1995), 12953-12956).
CV-1 cells (monkey kidney cells) are cotransfected with an expression vector for the chimeric protein PPARγ-Gal4 and with a “reporter” plasmid that allows expression of the luciferase gene placed under the control of a promoter comprising Gal4 response elements.
The cells are seeded in 96-well microplates and cotransfected using a commercial reagent with the reporter plasmid (pG5-tk-pGL3) and the expression vector for the chimeric protein (PPARγ-Gal4). After incubation for 4 hours, whole culture medium (comprising 10% foetal calf serum) is added to the wells. After 24 hours, the medium is removed and replaced with whole medium comprising the test products. The products are left in contact with the cells for 18 hours. The cells are then lysed and the luciferase activity is measured using a luminometer. A PPARγ activation factor can then be calculated by means of the activation of the expression of the reporter gene induced by the product (relative to the control cells that have received no product).
In the absence of the PPARγ ligand binding domain (vector expressing Gal4 alone), the luciferase activity measured in the presence of this product is zero.
The following transactivation result was obtained with a concentration of 30 μM on PPARγ.
The transactivation test using the expression of a chimeric protein Gal-4-PPARγ makes it possible to determine also whether an agonist functions as a “full” agonist or as a “partial” agonist in this system.
An agonist is “partial” in this system if it induces a weaker response, i.e. it has lower efficacy, than rosiglitazone, which is a “full” agonist. In concrete terms, in our system, the transactivation obtained at the plateau with a partial agonist will be between 20% and 50% of the maximum response (efficacy) at the plateau of rosiglitazone.

T1 sequence (P37231 238-503 limits assumed, change not shown): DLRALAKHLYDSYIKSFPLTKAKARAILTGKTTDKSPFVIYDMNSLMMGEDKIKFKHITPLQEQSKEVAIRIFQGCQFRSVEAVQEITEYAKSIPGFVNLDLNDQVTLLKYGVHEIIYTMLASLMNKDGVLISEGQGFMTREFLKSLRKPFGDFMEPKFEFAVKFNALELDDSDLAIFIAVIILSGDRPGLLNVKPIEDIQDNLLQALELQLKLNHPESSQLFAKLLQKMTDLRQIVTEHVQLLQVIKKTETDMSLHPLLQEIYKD
T1 sequence (P04386 1-147 partner limits assumed): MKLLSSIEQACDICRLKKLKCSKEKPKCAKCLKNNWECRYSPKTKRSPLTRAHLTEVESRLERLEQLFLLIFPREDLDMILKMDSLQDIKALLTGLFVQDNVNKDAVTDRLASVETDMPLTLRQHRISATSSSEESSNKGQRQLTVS

| Structure (SMILES) | Concentration to reach the maximum stimulation of the PPARγ chimeric protein (Gal4-PPARγ transactivation, plateau) [µM] | Emax (transactivation at the plateau as % of the maximum response (efficacy) of rosiglitazone, read-out: Maximum stimulation of the PPARγ chimeric protein obtained with rosiglitazone) [%] | Activation factor of the chimeric protein PPARγ-Gal4 (concentration 30 μM, 18 hours contact, relative to control cells that have received no product (control = 1)) |
| --- | --- | --- | --- |
| Cc1oc(-c2ccccc2)nc1COc1cc2c(cc1-c1ccc(C(=O)O)cc1)CCC2=O [Example 4, 4-[6-(5-Methyl-2-phenyloxazol-4-ylmethoxy)-1-oxoindan-5-yl]-benzoic acid] | 6.25 | 23 | – |
| Cc1cc(COc2cc3c(cc2-c2ccc(C(=O)O)cc2)CCC3=O)no1 [Example 29, 4-[6-(5-methylisoxazol-3-ylmethoxy)-1-oxoindan-5-yl]benzoic acid] | – | – | 16 |
